How the values were obtained:
[1] = system: Heliothis armigera; assay: Heliothis armigera test (soybean shoots dipped); assay type: in vivo
Method: (§1) To produce a suitable preparation of active compound, 1 part by weight of active compound is mixed with the stated amounts of solvent and emulsifier, and the concentrate is diluted with emulsifier-containing water to the desired concentration.
Soybean shoots (Glycine max) are treated by being dipped into the preparation of active compound of the desired concentration and are populated with caterpillars of the cotton bollworm (Heliothis armigera) while the leaves are still moist.
(§2) After the desired period of time, the kill in % is determined. 100% means that all caterpillars have been killed; 0% means that none of the caterpillars have been killed. The determined kill ratios are entered into Colby's formula (see page 39).

[2] = system: Plutella xylostella, normally sensitive strain; assay: Plutella xylostella test (normally sensitive strain); assay type: in vivo; conditions: 20 ppm, 4 d
Method: as §1
Cabbage leaves (Brassica oleracea) are treated by being dipped into the preparation of active compound of the desired concentration and are populated with caterpillars of the diamondback moth (Plutella xylostella, normally sensitive strain) while the leaves are still moist.
as §2

[3] = system: Plutella xylostella, resistant strain; assay: Plutella xylostella test (resistant strain); assay type: in vivo; conditions: 0.00128 ppm, 6 d
Method: as §1
Cabbage leaves (Brassica oleracea) are treated by being dipped into the preparation of active compound of the desired concentration and are populated with caterpillars of the diamondback moth (Plutella xylostella, resistant strain) while the leaves are still moist.
as §2

[4] = system: Spodoptera exigua; assay: Spodoptera exigua test (cabbage leaves dipped); assay type: in vivo; conditions: 0.8 ppm
Method: as §1
Cabbage leaves (Brassica oleracea) are treated by being dipped into the preparation of active compound of the desired concentration and are populated with caterpillars of the beet army worm (Spodoptera exigua) while the leaves are still moist.
as §2

## CCNC(=O)c1cc(Cl)cc(C)c1NC(=O)c1cc(OCC(F)(F)F)nn1-c1ncccc1Cl
other
  melting point: 205 to 207 °C

## O=C(NC(=O)c1ccccc1Cl)Nc1ccc(OC(F)(F)F)cc1 [(2-5) triflumuron, triflumuron, reference compound]
[1]; 0.8 ppm
  Kill rate in % after 6d found: 0%
[2]
  Kill rate in % after 4d found: 60%

## CCNC(=O)c1cc(I)cc(C)c1NC(=O)c1cc(Cl)nn1-c1ncccc1Cl
other
  melting point: 196 to 197 °C

## CC(C)NC(=O)c1cc(Cl)cc(Cl)c1NC(=O)c1cc(Cl)nn1-c1ncccc1Cl
other
  melting point: 197 to 199 °C

## CC(C)NC(=O)c1cc(Cl)cc(Cl)c1NC(=O)c1cc(C(F)(F)F)nn1-c1ncccc1Cl
other
  melting point: 200 to 201 °C

## CNC(=O)c1cc(I)cc(C)c1NC(=O)c1cc(Br)nn1-c1ncccc1Cl
other
  melting point: 229 to 230 °C

## CC(C)NC(=O)c1cc(Cl)cc(Cl)c1NC(=O)c1cc(Br)nn1-c1ncccc1Cl
other
  melting point: 188 to 190 °C

## CNC(=O)c1cc(I)cc(C)c1NC(=O)c1cc(Cl)nn1-c1ncccc1Cl
other
  melting point: 233 to 234 °C

## CCNC(=O)c1cc(Cl)cc(C)c1NC(=O)c1cc(Br)nn1-c1ncccc1Cl
other
  melting point: 194 to 195 °C

## CNC(=O)c1cc(Br)cc(C)c1NC(=O)c1cc(Br)nn1-c1ncccc1Cl
other
  melting point: 147 to 149 °C

## CNC(=O)c1cc(Br)cc(Br)c1NC(=O)c1cc(Cl)nn1-c1ncccc1Cl
other
  melting point: 188 to 190 °C

## CCNC(=O)c1cc(Cl)cc(C)c1NC(=O)c1cc(C(F)(F)F)nn1-c1ncccc1Cl
other
  melting point: 163 to 164 °C

## CC(C)(C)NC(=O)c1cc(Cl)cc(Cl)c1NC(=O)c1cc(C(F)(F)F)nn1-c1ncccc1Cl
other
  melting point: 170 to 172 °C

## CNC(=O)c1cc(Cl)cc(Cl)c1NC(=O)c1cc(Br)nn1-c1ncccc1Cl
other
  melting point: 245 to 246 °C

## CNC(=O)c1cc(Br)cc(C)c1NC(=O)c1cc(Cl)nn1-c1ncccc1Cl
other
  melting point: 140 to 141 °C

## Cc1cc(Br)cc(C(=O)NC(C)C)c1NC(=O)c1cc(C(F)(F)F)nn1-c1ncccc1Cl
other
  melting point: 197 to 198 °C

## CN(C)C(=O)c1cc(Br)cc(Br)c1NC(=O)c1cc(C(F)(F)F)nn1-c1ncccc1Cl
other
  melting point: 228 to 229 °C

## Cc1cc(I)cc(C(=O)NC(C)C)c1NC(=O)c1cc(Cl)nn1-c1ncccc1Cl
other
  melting point: 189 to 190 °C

## Cc1cc(Br)cc(C(=O)NC(C)(C)C)c1NC(=O)c1cc(Br)nn1-c1ncccc1Cl
other
  melting point: 215 to 221 °C

## CCNC(=O)c1cc(Cl)cc(Cl)c1NC(=O)c1cc(C(F)(F)F)nn1-c1ncccc1Cl
other
  melting point: 201 to 202 °C

## CC(C)NC(=O)c1cc(Br)cc(Br)c1NC(=O)c1cc(Br)nn1-c1ncccc1Cl
other
  melting point: 162 to 163 °C

## Cc1cc(Cl)cc(C(=O)NC(C)(C)C)c1NC(=O)c1cc(C(F)(F)F)nn1-c1ncccc1Cl
other
  melting point: 223 to 225 °C

## CNC(=O)c1cc(I)cc(C)c1NC(=O)c1cc(C(F)(F)F)nn1-c1ncccc1Cl
other
  melting point: 199 to 200 °C

## emamectin [(2-9) emamectin, reference compound]
[1]; 0.00128 ppm
  Kill rate in % after 6d found: 0%
[3]
  Kill rate in % after 6d found: 40%

## Cc1cc(Cl)cc(C(=O)NC(C)C)c1NC(=O)c1cc(OCC(F)(F)F)nn1-c1ncccc1Cl
other
  melting point: 217 to 218 °C

## CCNC(=O)c1cc(Br)cc(C)c1NC(=O)c1cc(C(F)(F)F)nn1-c1ncccc1Cl
other
  melting point: 192 to 193 °C

## CNC(=O)c1cc(Br)cc(Br)c1NC(=O)c1cc(Br)nn1-c1ncccc1Cl
other
  melting point: 166 to 168 °C

## CCNC(=O)c1cc(Br)cc(C)c1NC(=O)c1cc(Br)nn1-c1ncccc1Cl
other
  melting point: 194 to 196 °C

## CCNC(=O)c1cc(Cl)cc(Cl)c1NC(=O)c1cc(Cl)nn1-c1ncccc1Cl
other
  melting point: 206 to 208 °C

## CN(C)C(=O)c1cc(Br)cc(Br)c1NC(=O)c1cc(Br)nn1-c1ncccc1Cl
other
  melting point: 189 to 190 °C

## O=C(NC(=O)c1c(F)cccc1F)Nc1ccc(Oc2ccc(C(F)(F)F)cc2Cl)cc1F [(2-22) flufenoxuron, flufenoxuron, reference compound]
[4]
  Kill rate in % after 6d found: 10%

## CN(C)C(=O)c1cc(Cl)cc(Cl)c1NC(=O)c1cc(Cl)nn1-c1ncccc1Cl
other
  melting point: 231 to 232 °C

## CNC(=O)c1cc(Br)cc(C)c1NC(=O)c1cc(C(F)(F)F)nn1-c1ncccc1Cl
other
  melting point: 222 to 223 °C

## Cc1cc(I)cc(C(=O)NC(C)(C)C)c1NC(=O)c1cc(C(F)(F)F)nn1-c1ncccc1Cl
other
  melting point: 242 to 243 °C

## Cc1cc(I)cc(C(=O)NC(C)(C)C)c1NC(=O)c1cc(Cl)nn1-c1ncccc1Cl
other
  melting point: 228 to 229 °C

## Cc1cc(Br)cc(C(=O)NC(C)C)c1NC(=O)c1cc(Cl)nn1-c1ncccc1Cl
other
  melting point: 152 to 153 °C

## CNC(=O)c1cc(Cl)cc(Cl)c1NC(=O)c1cc(C(F)(F)F)nn1-c1ncccc1Cl
other
  melting point: 155 to 157 °C

## CC(C)NC(=O)c1cc(Cl)cc(Cl)c1NC(=O)c1cc(OCC(F)(F)F)nn1-c1ncccc1Cl
other
  melting point: 232 to 235 °C

## CNC(=O)c1cc(Br)cc(Br)c1NC(=O)c1cc(C(F)(F)F)nn1-c1ncccc1Cl
other
  melting point: 162 to 163 °C

## CCNC(=O)c1cc(Cl)cc(C)c1NC(=O)c1cc(Cl)nn1-c1ncccc1Cl
other
  melting point: 199 to 200 °C

## CNC(=O)c1cc(Cl)cc(Cl)c1NC(=O)c1cc(OCC(F)(F)F)nn1-c1ncccc1Cl
other
  melting point: 192 to 195 °C

## Cc1cc(Br)cc(C(=O)NC(C)(C)C)c1NC(=O)c1cc(Cl)nn1-c1ncccc1Cl
other
  melting point: 224 to 225 °C

## CNC(=O)c1cc(Cl)cc(Cl)c1NC(=O)c1cc(Cl)nn1-c1ncccc1Cl
other
  melting point: 205 to 206 °C

## CN(C)C(=O)c1cc(Cl)cc(Cl)c1NC(=O)c1cc(Br)nn1-c1ncccc1Cl
other
  melting point: 216 to 218 °C

## Cc1cc(I)cc(C(=O)NC(C)C)c1NC(=O)c1cc(C(F)(F)F)nn1-c1ncccc1Cl
other
  melting point: 188 to 189 °C

## CCNC(=O)c1cc(Br)cc(Br)c1NC(=O)c1cc(Br)nn1-c1ncccc1Cl
other
  melting point: 196 to 197 °C

## CCNC(=O)c1cc(Cl)cc(Cl)c1NC(=O)c1cc(Br)nn1-c1ncccc1Cl
other
  melting point: 214 to 215 °C

## Cc1cc(Br)cc(C(=O)NC(C)(C)C)c1NC(=O)c1cc(C(F)(F)F)nn1-c1ncccc1Cl
other
  melting point: 247 to 248 °C

## Cc1cc(Br)cc(C(=O)NC(C)C)c1NC(=O)c1cc(Br)nn1-c1ncccc1Cl
other
  melting point: 185 to 187 °C

## CC(C)(C)NC(=O)c1cc(Cl)cc(Cl)c1NC(=O)c1cc(Cl)nn1-c1ncccc1Cl
other
  melting point: 172 to 173 °C

## CCNC(=O)c1cc(I)cc(C)c1NC(=O)c1cc(C(F)(F)F)nn1-c1ncccc1Cl
other
  melting point: 199 to 200 °C

## CC(C)NC(=O)c1cc(Br)cc(Br)c1NC(=O)c1cc(Cl)nn1-c1ncccc1Cl
other
  melting point: 197 to 199 °C

## CCNC(=O)c1cc(Br)cc(Br)c1NC(=O)c1cc(C(F)(F)F)nn1-c1ncccc1Cl
other
  melting point: 188 to 189 °C

## CC(C)NC(=O)c1cc(Br)cc(Br)c1NC(=O)c1cc(C(F)(F)F)nn1-c1ncccc1Cl
other
  melting point: 192 to 193 °C

## CC(C)(C)NC(=O)c1cc(Cl)cc(Cl)c1NC(=O)c1cc(Br)nn1-c1ncccc1Cl
other
  melting point: 179 to 180 °C

## CC(C)(C)NC(=O)c1cc(Br)cc(Cl)c1NC(=O)c1cc(C(F)(F)F)nn1-c1ncccc1Cl
other
  melting point: 143 to 145 °C

## Cc1cc(Cl)cc(C(=O)NC(C)(C)C)c1NC(=O)c1cc(Cl)nn1-c1ncccc1Cl
other
  melting point: 163 to 165 °C

## Cc1cc(I)cc(C(=O)NC(C)C)c1NC(=O)c1cc(Br)nn1-c1ncccc1Cl
other
  melting point: 191 to 192 °C

## Cc1cc(Cl)cc(C(=O)NC(C)(C)C)c1NC(=O)c1cc(Br)nn1-c1ncccc1Cl
other
  melting point: 159 to 161 °C

## CNC(=O)c1cc(Cl)cc(C)c1NC(=O)c1cc(OCC(F)(F)F)nn1-c1ncccc1Cl
other
  melting point: 207 to 208 °C

## CCNC(=O)c1cc(Br)cc(Br)c1NC(=O)c1cc(Cl)nn1-c1ncccc1Cl
other
  melting point: 192 to 194 °C

## Cc1cc(Br)cc(C(=O)N(C)C)c1NC(=O)c1cc(C(F)(F)F)nn1-c1ncccc1Cl
other
  melting point: 207 to 208 °C

## CC(C)(C)NC(=O)c1cc(Br)cc(Br)c1NC(=O)c1cc(C(F)(F)F)nn1-c1ncccc1Cl
other
  melting point: 246 to 247 °C

## CN(C)C(=O)c1cc(Br)cc(Br)c1NC(=O)c1cc(Cl)nn1-c1ncccc1Cl
other
  melting point: 153 to 155 °C

## CNC(=O)c1cc(Cl)cc(C)c1NC(=O)c1cc(Cl)nn1-c1ncccc1Cl
other
  melting point: 225 to 226 °C

## COc1cccc(C(=O)NN(C(=O)c2cc(C)cc(C)c2)C(C)(C)C)c1C [(2-10) methoxyfenozide, methoxyfenozide, reference compound]
[1]; 4 ppm, 3 d
  Kill rate in % after 3d found: 0%

## CN(C)C(=O)c1cc(Cl)cc(Cl)c1NC(=O)c1cc(C(F)(F)F)nn1-c1ncccc1Cl
other
  melting point: 225 to 227 °C

## CCNC(=O)c1cc(Br)cc(C)c1NC(=O)c1cc(Cl)nn1-c1ncccc1Cl
other
  melting point: 192 to 194 °C

## CC(C)(C)NC(=O)c1cc(Br)cc(Br)c1NC(=O)c1cc(Cl)nn1-c1ncccc1Cl
other
  melting point: 210 to 212 °C

## CC(C)(C)NC(=O)c1cc(Br)cc(Br)c1NC(=O)c1cc(Br)nn1-c1ncccc1Cl
other
  melting point: 194 to 196 °C
